From patent publication US9931367B2, “Uses of cistanche tubulosa extract and isoacteoside in protecting muscle” (SINPHAR TIAN-LI PHARMACEUTICAL CO., LTD. (HANGZHOU), priority 2016, dated 2018)

Key:
[1] = test system: C2C12 cells with TNF-α induced injury; experiment: Protection of C2C12 cells against TNF-α induced injury (survival rate, MMP, intracellular ROS); format: cell-based, mice; details: pre-treated 6 h, then 10 ng/mL TNF-α 4 days
Procedure: C2C12 cells were cultured in H-DMEM medium until 80% confluence was attained. Thereafter, the cells were separated into eleven groups, wherein seven groups thereof were provided with the Cistanche tubulosa extract (CIS) solution (dissolved in DMSO) to provide final concentrations of 0, 1, 5, 10, 50, 100, 500 μg/mL, respectively, and then pre-treatment was carried out for 6 hours; the other three groups were provided with branched chain amino acids (BCAA; served as a positive control) to provide final concentrations of 0.1, 1 or 10 μg/mL respectively, and then pre-treatment was carried out for 6 hours; thereafter, the mediums of the above ten groups (seven groups provided with CIS and three groups provided with BCAA) were replaced by differentiation mediums supplemented with 2% horse serum, and TNA-α was then added into those mediums to provide a final concentration of 10 ng/mL, and then co-treated with differentiation medium for 4 days; the last group served as a control group, which was not treated with the Cistanche tubulosa extract, BCAA, or TNA-α. Finally, the survival rates, MMPs and intracellular ROSs of the C2C12 cells in each group were measured. The control group served as a basis for calculating the relative survival rates, MMPs, and intracellular ROSs of the other groups to determine the effective concentration of Cistanche tubulosa extract for providing a protective effect against the TNF-α induced muscle cell injury. The results are shown in FIG. 3 and FIG. 4 (all the data are presented as average values±SEM, n=6, analyzed with a t-test, *p<0.05, **p<0.01, ***p<0.001).
According to the results of Example 1, echinacoside (Ech), verbascoside (VB) and isoacteoside (Iso) are the main ingredients of the Cistanche tubulosa extract. To investigate whether the echinacoside, verbascoside and isoacteoside have the effect of protecting muscles, the echinacoside, verbascoside and isoacteoside (all purchased from ChromaDex company, U.S.) were dissolved in DMSO to provide a echinacoside solution, a verbascoside solution and a isoacteoside solution. C2C12 cells were cultured in H-DMEM medium until 80% confluence was attained. Thereafter, the cells were separated into eighteen groups and treated as follows: • (1) Control group: cells were cultured in H-DMEM medium for 6 hours; thereafter the medium was replaced by a differentiation medium supplemented with 2% horse serum, and the cells were cultured for 4 days. • (2) TNF-α group: cells were cultured in H-DMEM medium for 6 hours; thereafter the medium was replaced by a differentiation medium supplemented with 2% horse serum, and TNF-α was then added into the medium (the final concentration was 10 ng/mL) to carry out a co-treatment for 4 days. • (3) TNF-α+echinacoside group (6 groups): the echinacoside solution was added into H-DMEM mediums to provide final concentrations of 1, 5, 10, 50, 100, or 500 μg/mL, respectively. The cells were pre-treated with the above mediums for 6 hours. Thereafter, the mediums were replaced by differentiation mediums supplemented with 2% horse serum, and TNF-α was then added into the mediums (the final concentration was 10 ng/mL) to carry out co-treatments for 4 days. • (4) TNF-α+verbascoside group (5 groups): the verbascoside solution was added into H-DMEM mediums to provide final concentration of 1, 5, 10, 50, or 100 μg/mL, respectively. The cells were pre-treated with the above mediums for 6 hours. Thereafter, the mediums were replaced by differentiation mediums supplemented with 2% horse serum, and TNF-α was then added into the mediums (the final concentration was 10 ng/mL) to carry out co-treatments for 4 days. • (5) TNF-α+isoacteoside group (5 groups): the isoacteoside solution was added into H-DMEM mediums to provide final concentrations of 1, 5, 10, 50, or 100 μg/mL, respectively. The cells were pre-treated with the above mediums for 6 hours. […]

C2C12 cells = experiment: Establishment of TNF-α induced muscle cell injury model (MMP, intracellular ROS); format: cell-based, mice; details: 4 days, relative to 0 ng/mL group
Procedure: Firstly, C2C12 cells (i.e., muscle cells of mice, purchased from ATCC) were cultured in H-DMEM medium (purchased from Sigma company) until 80% confluence was attained (i.e., the mixed cell monolayer comprises 80% of area). Thereafter, the cells were separated into four groups, and the mediums of all the groups were replaced by differentiation mediums supplemented with 2% horse serum. TNF-α (purchased from Sigma company) was then added into those mediums to provide final concentrations of 0, 2, 5, 10 ng/mL respectively. After being co-treated with the differentiation medium and TNF-α for 4 days, the mitochondrial membrane potential (MMP) and intracellular reactive oxidative stress (ROS) of the C2C12 cells were measured to serve as the index for model evaluation. Accordingly, a TNF-α induced muscle cell injury model was established. Finally, the group that was not treated with TNF-α (i.e., the concentration of TNF-α was 0 ng/mL) served as a basis for calculating the relative MMPs and intracellular ROSs of the other groups. The results are shown in FIG. 1 (all the data are presented as average values±SEM, n=6, analyzed with a t-test, *p<0.05, ***p<0.001).

## C[C@@H]1O[C@@H](O[C@@H]2[C@@H](O)[C@H](OCCc3ccc(O)c(O)c3)O[C@H](COC(=O)/C=C/c3ccc(O)c(O)c3)[C@H]2O)[C@H](O)[C@H](O)[C@H]1O [isoacteoside]
[1]; 100 μg/mL
  decrease in the MMP induced by TNF-α: significantly ameliorated
[1]; 5 to 100 μg/mL
  survival rate: increased
[1]; 10 to 100 μg/mL
  intracellular ROS: significantly decreased

## C[C@@H]1O[C@@H](O[C@@H]2[C@@H](O)[C@H](OCCc3ccc(O)c(O)c3)O[C@H](CO)[C@H]2OC(=O)/C=C/c2ccc(O)c(O)c2)[C@H](O)[C@H](O)[C@H]1O [verbascoside]
[1]; 1 to 100 μg/mL
  protection of C2C12 cells against TNF-α induced injury (survival rate, MMP, ROS): could not protect

## TNF-α
C2C12 cells; 5 ng/mL TNF-α
  intracellular reactive oxidative stress (ROS): slightly increased
  mitochondrial membrane potential (MMP): significantly decreased
C2C12 cells; 10 ng/mL TNF-α
  intracellular reactive oxidative stress (ROS): significantly increased
  mitochondrial membrane potential (MMP): significantly decreased

## echinacoside
[1]; 5 to 500 μg/mL tested
  concentration at which the protective effect (survival rate) became significant: 100 µg/mL
[1]; 5 to 500 μg/mL
  protective effect on MMP: did not exhibit protective effect
  protective effect on ROS: did not exhibit protective effect
[1]; lower concentration within 5 to 500 μg/mL
  protective effect (survival rate): not significant
